Our source for the melting point values is patent US7094911B2, “Biphenyl and biphenyl-analogous compounds as integrin antagonists” (Bayer Aktiengesellschaft, priority 1998, dated 2006).

The term melting point denotes the temperature, or range, at which the solid turns liquid.

Take `O=C(O)C[C@@H](NS(=O)(=O)c1cccc(-c2cccc(NC(=O)N=c3[nH]c4ccccc4[nH]3)c2)c1)c1ccccc1` [Example 4.91]: the melting point came out at 189 °C.

`CC1(C)[C@H]2CCC1(CS(=O)(=O)N[C@@H](Cc1ccc(-c3cccc(N/C(=N/C#N)NC4CC4)c3)cc1)C(=O)O)C(=O)C2` [Example 10.5] had a melting point of 178 °C.

In turn, `O=C(O)[C@H](Cc1ccc(-c2cccc(CNc3ccccn3)c2)cc1)NS(=O)(=O)c1c(F)cccc1F` [Example 18.12] returned a melting point of more than 240 °C.

With `C=CCN/C(=C\[N+](=O)[O-])Nc1cccc(-c2ccc(C[C@H](NS(=O)(=O)CC34CC[C@@H](CC3=O)C4(C)C)C(=O)O)cc2)c1` [Example 12.5], the melting point is 150 °C (dec.).

Take `O=C(Nc1cccc(-c2ccc(C[C@H](NS(=O)(=O)CCCC(F)(F)F)C(=O)O)cc2)c1)NC1CC1` [Example 1.162]: the melting point stood at 202 °C.

The compound `CC1(C)C2CC[C@@]1(CS(=O)(=O)N[C@@H](Cc1ccc(-c3ccc(NC(=O)N=c4[nH]c5ccccc5[nH]4)cc3)cc1)C(=O)O)C(=O)C2` [Example 1.215] showed a melting point of 222 °C.

On to `CC1(C)C2CC[C@@]1(CS(=O)(=O)N[C@@H](Cc1ccc(-c3cccc(Nc4ncccc4[N+](=O)[O-])c3)cc1)C(=O)O)C(=O)C2` [Example 20.3], for which the melting point came out at 207 °C.

The compound `COc1ccc(-c2cccc(NC(=O)Nc3nccs3)c2)cc1S(=O)(=O)NC(CC(=O)O)c1ccccc1` (stereo not shown) [Example 4.99] gave a melting point of more than 240 °C.

On to `O=C(O)CC(NS(=O)(=O)c1cccc(-c2cccc(Nc3c(NCC(F)(F)F)c(=O)c3=O)c2)c1)c1cccnc1` (stereo not shown) [Example 13.11], for which the melting point was 219 °C (dec.).

With `O=C(O)CC(NS(=O)(=O)c1cccc(-c2cccc(Nc3c(NCc4ccccn4)c(=O)c3=O)c2)c1)c1ccccc1` (stereo not shown) [Example 13.8], the melting point was 149 °C (dec.).

On to `Cc1cc(C)c(S(=O)(=O)N[C@@H](Cc2ccc(-c3cccc(N/C(=N/C#N)NCc4ccccn4)c3)cc2)C(=O)O)c(C)c1` [Example 10.9], for which the melting point was 174 °C (dec.).

Compound `CCCCNC(=O)Nc1cccc(-c2ccc(OC)c(S(=O)(=O)N[C@@H](CC(=O)O)c3ccccc3)c2)c1` [Example 4.96] had a melting point of 156 °C.

In turn, `COc1ccc(-c2cccc(NC(=O)c3ncc[nH]3)c2)cc1S(=O)(=O)NC(CC(=O)O)c1ccccc1` (stereo not shown) [Example 19.5] gave a melting point of more than 200 °C.

With `Cc1cc(C)c(S(=O)(=O)NC(Cc2cccc(-c3ccc(NC(=O)N=c4[nH]c5ccccc5[nH]4)cc3)c2)C(=O)O)c(C)c1` (stereo not shown) [Example 1.202], the melting point came out at 193 °C.

For `Cc1cc(C)c(S(=O)(=O)N[C@@H](Cc2ccc(-c3cccc(Nc4nc5ccccc5[nH]4)c3)cc2)C(=O)O)c(C)c1` [Example 16.1.3, (2S)-3-[3′-(1H-benzimidazol-2-ylamino)[1,1′-biphenyl]-4-yl]-2-[(mesitylsulfonyl)amino]propanoic acid], the melting point was 190 °C (dec.).

`C[C@@H](NS(=O)(=O)c1cccc(-c2cccc(NC(=O)N=c3[nH]c4ccccc4[nH]3)c2)c1)C(=O)O` [Example 4.83]: the melting point was 158 °C.

`CCCNC(=O)Nc1cccc(-c2cccc(S(=O)(=O)N[C@H](C)C(=O)O)c2)c1` [Example 4.81] yielded a melting point of 126 °C.

Take `CCNC(=O)Nc1ccc(-c2ccc(OC)c(S(=O)(=O)NC(CC(=O)O)c3ccccc3)c2)cc1` (stereo not shown) [Example 4.71]: the melting point amounted to 134 °C.

Turning to `Cc1cc(C)c(S(=O)(=O)NC(Cc2cccc(-c3cccc(NC(=O)NCc4ccccn4)c3)c2)C(=O)O)c(C)c1` (stereo not shown) [Example 1.193], the melting point stood at 118 °C.

In the case of `Cc1cc(C)c(S(=O)(=O)N[C@@H](Cc2ccc(-c3cccc(Nc4n[s+]([O-])nc4NC4CC4)c3)cc2)C(=O)O)c(C)c1` (stereo partly drawn) [Example 17.1.3, (2S)-2-[(Mesitylsulfonyl)amino]-3-(3′-{[4-(cyclopropylamino)-1-oxo-1H-1[lambda]4,2,5-thiadiazol-3-yl]amino}[1,1′-biphenyl]-4-yl)-propanoic acid], the melting point was 180 °C (dec.).

For the compound `COc1ccc(-c2cccc(CNc3ccccn3)c2)cc1S(=O)(=O)NC(CC(=O)O)c1ccccc1` (stereo not shown) [Example 18.3], the melting point was found to be 138 °C.

`COc1ccc(-c2cccc(NC(=O)/N=c3\[nH]c4ccc(C(=O)O)cc4[nH]3)c2)cc1S(=O)(=O)NC(CC(=O)O)c1ccccc1` (stereo not shown) [Example 4.103] showed a melting point of more than 240 °C.

`Cc1cc(C)c(S(=O)(=O)N[C@@H](Cc2ccc(-c3cccc(NC(=O)NCCSC(F)(F)F)c3)cc2)C(=O)O)c(C)c1` [Example 1.207] came in with a melting point of 138 °C.

For `CC1(C)[C@H]2CCC1(CS(=O)(=O)N[C@@H](Cc1ccc(-c3cccc(N/C(=C/[N+](=O)[O-])NCc4ccccn4)c3)cc1)C(=O)O)C(=O)C2` [Example 12.7], the melting point was 126 °C (dec.).

The compound `CCCNC(=O)Nc1ccc(-c2cccc(CC(NS(=O)(=O)c3c(C)cc(C)cc3C)C(=O)O)c2)cc1` (stereo not shown) [Example 1.203] returned a melting point of 119 °C.

As for `O=C(O)[C@H](Cc1ccc(-c2cccc(CNc3ccccn3)c2)cc1)NS(=O)(=O)c1c(Cl)cccc1Cl` [Example 18.13], the melting point is more than 240 °C.

As to `C[C@H](NS(=O)(=O)c1cccc(-c2cccc(NC(=O)N=c3[nH]c4ccccc4[nH]3)c2)c1)C(=O)O` [Example 4.80], the melting point amounted to 218 °C.

Consider `CCCNC(=O)Nc1cccc(-c2cccc(S(=O)(=O)N(C)CC(=O)O)c2)c1` [Example 6.12], for which the melting point is 90 °C.

In turn, `CCCCNC(=O)Nc1cccc(-c2cccc(S(=O)(=O)N[C@H](CC(=O)O)c3ccccc3)c2)c1` [Example 4.94] showed a melting point of 152 °C.

`CCCNC(=O)Nc1ccc(-c2ccc(OC)c(S(=O)(=O)NC(CC(=O)O)c3ccccc3)c2)cc1` (stereo not shown) [Example 4.98] registered a melting point of 116 °C.

Compound `CN(CC(=O)O)S(=O)(=O)c1cccc(-c2cccc(NC(=O)N=c3[nH]c4ccccc4[nH]3)c2)c1` [Example 6.13] showed a melting point of 184 °C.

As to `Cc1cc(C)c(S(=O)(=O)N[C@@H](Cc2ccc(-c3cccc(NC(=O)c4ccc[nH]4)c3)cc2)C(=O)O)c(C)c1` [Example 19.2], the melting point was 140 °C (dec.).

As for `Cc1cc(C)c(S(=O)(=O)N[C@@H](Cc2ccc(-c3cccc(Nc4c(NC5CC5)c(=O)c4=O)c3)cc2)C(=O)O)c(C)c1` [Example 13.1.3, (2S)-3-(3′-{[2-(cyclopropylamino)-3,4-dioxo-1-cyclobuten-1-yl]-amino}[1,1′-biphenyl]-4-yl)-2-[(mesitylsulfonyl)amino]-propanoic acid], the melting point came to 164 °C.

In turn, `COc1ccc(-c2cccc(Nc3ccccn3)c2)cc1S(=O)(=O)NC(CC(=O)O)c1ccccc1` (stereo not shown) [Example 20.5] came in with a melting point of more than 240 °C.

`CCCCNC(=O)Nc1cccc(-c2ccc(OC)c(S(=O)(=O)NC(CC(=O)O)c3ccccc3)c2)c1` (stereo not shown) [Example 4.63] registered a melting point of 190 °C.

Regarding `CCCNC(=O)Nc1cccc(-c2cccc(CC(NS(=O)(=O)c3c(C)cc(C)cc3C)C(=O)O)c2)c1` (stereo not shown) [Example 1.192], the melting point was 136 °C.

With `CCCCNC(=O)Nc1cccc(-c2ccc(OC)c(S(=O)(=O)N[C@H](CC(=O)O)c3ccccc3)c2)c1` [Example 4.87], the melting point is 122 °C (dec.).
